Assay results taken from US5143923A, “Benzoisothiazole- and benziosoxazole-3-carboxamides” (Hoechst-Roussel Pharmaceuticals Inc., priority 1991, dated 1992).
Structures can show the parent of a compound that is named as a salt. Where two headings read alike, the source gives them in different places.

Assays:
[1] = tested on: apomorphine-induced climbing; test: Inhibition of apomorphine-induced climbing, climbing mice assay (antipsychotic activity); assay type: in vivo, CK-1 male mice; settings: for ED50: Mus musculus, ip, read-out: Antipsychotic Activity ED50
Method: The subject CK-1 male mice (23-27 grams) are group-housed under standard laboratory conditions. The mice are individually placed in wire mesh stick cages (4"×4"10") and are allowed one hour for adaptation and exploration of the new environment.
For evaluation of climbing, 3 readings are taken at 10, 20 and 30 minutes after apomorphine administration according to the following scale: […]
Mice consistently climbing before the injection of apormorphine are discarded.
With full-developed apomorphine climbing, the animals are hanging onto the cage walls, rather motionless, over longer periods of time. By contrast, climbs due to mere motor stimulation usually only last a few seconds.
The climbing scores are individually totaled (maximal score; 6 per mouse over 3 readings) and the total score of the control group (vehicle intraperitioneally-apomorphine subcutaneously) is set to 100%.

[2] = tested on: apomorphine induced stereotypy; test: Inhibition of apomorphine induced stereotypy assay (extrapyramidal side effect potential); assay type: in vivo, male Wistar rats
Method: Potential for undersible extrapyramidal side effect activity is determined in the inhibition of apormorphine stereotypy assay by methods similar to those described by N. E. Anden, et al., J. Pharma.
Drugs are prepared using distilled water and, if insoluble, a suitable surfactant is added. The route of administration may be varied and the dosage volume is 10 ml/kg. For a primary screen, a group size of six is used. Drug is administered one hour prior to scoring and the animals are placed in individual clear plastic cages (24×14×13 cm). The control group receives vehicle. Apomorphine hydrochloride solution is prepared at a concentration of 15 mg/10 ml in a 0.03% ascorbic acid stock solution (30 mg of ascorbic acid in 100 ml of 1% saline) to increase the stability of the apomorphine hydrochloride while in solution. […] Fifty minutes after drug dosing, stereotypic behavior is noted. Stereotypic activity is defined as sniffing, licking or chewing behavior that occurs in a repetitive manner and is rated as follows: Constant sniffing, licking or chewing without interruption; the animal is considered protected if this behavior is interrupted.
The percent effectiveness of a drug is determined by the number of animals protected in each group.
A dose-response is run in the same manner as a primary screen except that a group size of 10 is used and the animals are dosed in a randomized manner. One group receives vehicle. ED50 for stereotypy are calculated by means of probit analysis.

[3] = Rattus norvegicus, read-out: % Inhibition of apomorphine induced stereotypy
[4] = mice, compound intraperitoneally 30 min before apomorphine 1.5 mg/kg s.c.

Compound: O=C(CCCN1CCC(O)(c2ccc(Cl)cc2)CC1)c1ccc(F)cc1 [Haloperidol, reference compound]
- ED50 [1]: 0.11 mg/kg
- inhibition at 0.2 mg/kg [2, 3]: 50%

Compound: CN(CCCCN1CCN(c2csc3cc(F)ccc23)CC1)C(=O)c1nsc2ccccc12.Cl [N-Methyl-N-[4-(1-(6-fluorobenzo[b]thiophen-3-yl)-4-piperazinyl)butyl]-1,2-benzisothiazol-3-carboxamide hydrochloride]
- ED50 [1]: 4.5 mg/kg
- inhibition at 40 mg/kg [2, 3]: 100%

Compound: COc1ccccc1N1CCN(CCCCN(C)C(=O)c2nsc3ccccc23)CC1 [N-Methyl-N-[4-(1-(2-methoxyphenyl)-4-piperazinyl)butyl]-1,2-benzisothiazole-3-carboxamide dihydrochloride hemihydrate]
- Antipsychotic Activity ED50 ([1]; mice, compound intraperitoneally 30 min before apomorphine 1.5 mg/kg s.c., dihydrochloride hemihydrate): 4.2 mg/kg
- Antipsychotic Activity ED50 ([1]; mice, compound intraperitoneally 30 min before apomorphine 1.5 mg/kg s.c., listed as N-methyl-N-[4-(1-(2-methoxyphenyl)-4-piperazinyl)butyl-1,2-benzisothiazole-3-car, dihydrochloride hemihydrate): 9.6 mg/kg
- inhibition at 39.2 mg/kg ([2]; Rattus norvegicus, rats, dose 39.2 mg/kg body wt.): 50%

Compound: CN(CCCCN1CCN(c2nsc3ccccc23)CC1)C(=O)c1nsc2ccccc12 [N-Methyl-N-[4-(1-(1,2-benzisothiazol-3-yl)-4-piperazinyl)butyl]-1,2-benzisothiazole-3-carboxamide hydrochloride]
- inhibition at 40 mg/kg [2, 3]: 100%

Compound: Cl.O=C(NCCCCN1CCN(c2nsc3ccccc23)CC1)c1nsc2ccccc12 [N-[4-(1-(1,2-Benzisothiazol-3-yl)-4-piperazinyl)butyl]-1,2-benzisothiazole-3-carboxamide hydrochloride]
- ED50 [1]: 8.3 mg/kg
- inhibition at 40 mg/kg [2, 3]: 17%

Compound: Cl.O=C(NCCN1CCN(c2csc3cc(F)ccc23)CC1)c1noc2ccccc12 [N-[2-(1-(6-fluorobenzo[b]thiophen-3-yl)-4-piperazinyl)ethyl]-1,2-benzisoxazole-3-carboxamide hydrochloride]
- ED50 [1]: 4.9 mg/kg
- inhibition at 80 mg/kg [2, 3]: 0%

Compound: CSc1ccc2c(c1)N(CCC1CCCCN1C)c1ccccc1S2 (centres unmarked) [thioridazine, reference compound]
- inhibition at 16 mg/kg ([2]; Rattus norvegicus, rats, dose 16 mg/kg body wt.): 50%

Compound: CCN1CCCC1CNC(=O)c1cc(S(N)(=O)=O)ccc1OC (centres unmarked) [Sulpiride, reference compound]
- ED50 [1, 4]: 4.5 mg/kg

Compound: N-[2-(1-(4-Fluorobenzoyl)-4-piperidinyl)ethyl]-1,2-benzisothiazole-3-carboxamide hydrochloride hemihydrate
- Antipsychotic Activity ED50 [1, 4]: 3.6 mg/kg
- % Inhibition of apomorphine induced stereotypy ([2]; rats, dose 20 mg/kg body wt.): 67%

Compound: CN(CCCCN1CCN(c2csc3cc(F)ccc23)CC1)C(=O)c1noc2ccccc12.Cl [N-Methyl-N-[4-(1-(6-fluorobenzo[b]thiophen-3-yl)-4-piperazinyl)butyl]-1,2-benzisoxazole-3-carboxamide hydrochloride]
- ED50 [1]: 5 mg/kg
- inhibition at 52 mg/kg [2, 3]: 50%

Compound: COc1ccccc1N1CCN(CCNC(=O)c2nsc3ccccc23)CC1.Cl.Cl [N-[2-(1-(2-Methoxyphenyl)-4-piperazinyl)ethyl]-1,2-benzisothiazole-3-carboxamide dihydrochloride]
- ED50 [1]: 6.3 mg/kg
- inhibition at 51.8 mg/kg [2, 3]: 50%
